# Test results from ChEMBL document CHEMBL3991601, “The target landscape of clinical kinase drugs” (Science, 2017).
# Active and inactive are the calls of the source.
# Biological target: T1, Beta-adrenergic receptor kinase 1 (Homo sapiens, UniProt P25098)
# T1 sequence (P25098 whole entry): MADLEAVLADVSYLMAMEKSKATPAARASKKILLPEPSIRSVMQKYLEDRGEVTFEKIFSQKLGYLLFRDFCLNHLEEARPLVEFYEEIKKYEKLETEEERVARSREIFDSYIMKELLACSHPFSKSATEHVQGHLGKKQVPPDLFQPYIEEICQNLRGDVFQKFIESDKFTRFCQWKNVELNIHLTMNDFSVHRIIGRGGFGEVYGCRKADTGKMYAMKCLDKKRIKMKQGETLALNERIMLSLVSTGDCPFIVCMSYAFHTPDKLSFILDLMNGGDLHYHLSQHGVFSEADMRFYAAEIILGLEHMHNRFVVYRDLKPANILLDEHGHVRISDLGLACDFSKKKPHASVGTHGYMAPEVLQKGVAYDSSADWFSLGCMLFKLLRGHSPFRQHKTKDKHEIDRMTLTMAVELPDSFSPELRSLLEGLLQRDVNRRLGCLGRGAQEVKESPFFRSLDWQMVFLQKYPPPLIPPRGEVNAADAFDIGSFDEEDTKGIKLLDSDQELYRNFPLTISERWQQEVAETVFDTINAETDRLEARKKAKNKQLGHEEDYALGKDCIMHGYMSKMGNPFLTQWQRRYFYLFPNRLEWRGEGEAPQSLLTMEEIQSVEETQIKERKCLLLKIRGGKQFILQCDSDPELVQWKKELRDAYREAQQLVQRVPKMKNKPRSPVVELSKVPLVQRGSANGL
# Note: in the data inactive means no Kd found up to 30 µM.
row,Compound,Kd
1,N[C@@H]1CCCN(c2c(/C=C3\SC(=O)NC3=O)cccc2-c2ccccc2)C1,> 30 µM (inactive)
2,Cc1ccc(S(=O)(=O)Nc2nc3ccccc3nc2Nc2ccc3nsnc3c2)cc1,> 30 µM (inactive)
3,CN1CC[C@@H](c2c(O)cc(O)c3c(=O)cc(-c4ccccc4Cl)oc23)[C@@H]1CO,> 30 µM (inactive)
4,Cc1cc(-c2cc(O)ccc2Cl)cc2nnc(Nc3ccc(OCCN4CCCC4)cc3)nc12,> 30 µM (inactive)
5,CCN1CCN(Cc2ccc(-c3cc4c(N[C@H](C)c5ccccc5)ncnc4[nH]3)cc2)CC1 [AEE-788],> 30 µM (inactive)
6,Cn1ncc(Cl)c1-c1cc(C(=O)N[C@H](CN)Cc2cccc(F)c2)sc1Cl [AFURESERTIB],> 30 µM (inactive)
7,COc1cc(N2CCC(N3CCN(C)CC3)CC2)ccc1Nc1ncnc(Nc2ccccc2S(=O)(=O)C(C)C)n1 [ASP-3026],> 30 µM (inactive)
8,CNS(=O)(=O)Nc1nccc(Cc2c(C)c3ccc(Oc4ncccn4)cc3oc2=O)c1F [AVUTOMETINIB],> 30 µM (inactive)
9,COc1cc(CCc2cc(NC(=O)c3ccc(N4C[C@@H](C)N[C@@H](C)C4)cc3)n[nH]2)cc(OC)c1 [AZD-4547],> 30 µM (inactive)
10,Cc1cc([C@@H](C)Nc2ccccc2C(=O)O)c2nc(N3CCOCC3)cc(=O)n2c1 [AZD-6482],> 30 µM (inactive)
11,COc1ccc(-c2ccc3c(N4CCOC[C@@H]4C)nc(N4CCOC[C@@H]4C)nc3n2)cc1CO [AZD-8055],> 30 µM (inactive)
12,C[C@@H](Nc1cc(F)cc(F)c1)c1cc(C(=O)N(C)C)cc2c(=O)cc(N3CCOCC3)oc12 [AZD-8186],> 30 µM (inactive)

# Biological target: Citron Rho-interacting kinase (Homo sapiens, UniProt O14578)
# Sequence (O14578 whole entry): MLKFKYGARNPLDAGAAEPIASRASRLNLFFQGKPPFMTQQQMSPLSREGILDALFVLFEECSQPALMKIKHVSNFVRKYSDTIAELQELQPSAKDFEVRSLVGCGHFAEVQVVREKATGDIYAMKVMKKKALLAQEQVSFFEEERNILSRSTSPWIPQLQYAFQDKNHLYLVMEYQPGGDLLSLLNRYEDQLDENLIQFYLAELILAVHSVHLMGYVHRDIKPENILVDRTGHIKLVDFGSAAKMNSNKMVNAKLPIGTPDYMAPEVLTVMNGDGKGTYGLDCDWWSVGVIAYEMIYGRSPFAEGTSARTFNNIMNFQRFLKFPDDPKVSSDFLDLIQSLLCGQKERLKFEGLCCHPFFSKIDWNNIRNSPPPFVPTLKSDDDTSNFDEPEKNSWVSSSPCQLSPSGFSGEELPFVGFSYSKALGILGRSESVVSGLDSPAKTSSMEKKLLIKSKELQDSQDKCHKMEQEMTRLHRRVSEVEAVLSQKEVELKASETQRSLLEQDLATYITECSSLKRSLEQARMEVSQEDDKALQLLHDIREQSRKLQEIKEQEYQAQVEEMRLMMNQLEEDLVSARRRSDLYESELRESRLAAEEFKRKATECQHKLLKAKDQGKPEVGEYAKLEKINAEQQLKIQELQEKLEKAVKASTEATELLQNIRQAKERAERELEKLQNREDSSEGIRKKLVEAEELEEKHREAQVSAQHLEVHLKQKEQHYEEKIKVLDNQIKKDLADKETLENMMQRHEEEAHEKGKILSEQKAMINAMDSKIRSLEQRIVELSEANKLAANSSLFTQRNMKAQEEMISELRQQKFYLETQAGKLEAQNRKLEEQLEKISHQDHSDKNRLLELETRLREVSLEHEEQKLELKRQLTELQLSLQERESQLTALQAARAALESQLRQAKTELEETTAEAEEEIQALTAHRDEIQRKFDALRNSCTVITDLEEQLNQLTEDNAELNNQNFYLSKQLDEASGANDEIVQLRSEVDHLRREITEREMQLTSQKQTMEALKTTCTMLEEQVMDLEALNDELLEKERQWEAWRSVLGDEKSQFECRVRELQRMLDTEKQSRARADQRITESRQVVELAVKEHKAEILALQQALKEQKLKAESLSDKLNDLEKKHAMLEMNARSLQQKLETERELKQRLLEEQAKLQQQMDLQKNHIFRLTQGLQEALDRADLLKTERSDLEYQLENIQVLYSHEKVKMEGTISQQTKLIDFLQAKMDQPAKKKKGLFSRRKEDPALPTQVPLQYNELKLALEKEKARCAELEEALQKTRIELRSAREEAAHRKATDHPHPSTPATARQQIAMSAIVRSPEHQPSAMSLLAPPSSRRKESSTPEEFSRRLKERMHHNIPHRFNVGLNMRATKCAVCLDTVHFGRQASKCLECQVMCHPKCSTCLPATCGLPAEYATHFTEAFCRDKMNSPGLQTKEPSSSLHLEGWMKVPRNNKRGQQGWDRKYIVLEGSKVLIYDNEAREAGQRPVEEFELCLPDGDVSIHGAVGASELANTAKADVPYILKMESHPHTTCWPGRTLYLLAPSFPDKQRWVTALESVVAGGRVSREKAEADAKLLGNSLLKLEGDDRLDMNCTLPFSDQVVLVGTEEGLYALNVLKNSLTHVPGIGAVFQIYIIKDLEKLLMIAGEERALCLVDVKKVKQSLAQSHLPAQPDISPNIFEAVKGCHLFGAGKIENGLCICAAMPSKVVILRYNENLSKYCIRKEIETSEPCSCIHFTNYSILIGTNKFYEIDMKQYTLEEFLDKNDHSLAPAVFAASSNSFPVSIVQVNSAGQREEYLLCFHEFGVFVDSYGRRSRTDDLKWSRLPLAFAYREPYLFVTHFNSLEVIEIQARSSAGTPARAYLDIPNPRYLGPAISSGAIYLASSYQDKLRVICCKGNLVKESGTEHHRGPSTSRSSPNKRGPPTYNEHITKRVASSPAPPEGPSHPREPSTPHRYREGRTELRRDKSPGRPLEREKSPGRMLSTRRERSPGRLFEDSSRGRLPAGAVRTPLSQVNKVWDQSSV
row,Compound,Kd
1,N[C@@H]1CCCN(c2c(/C=C3\SC(=O)NC3=O)cccc2-c2ccccc2)C1,> 30 µM (inactive)
2,Cc1ccc(S(=O)(=O)Nc2nc3ccccc3nc2Nc2ccc3nsnc3c2)cc1,> 30 µM (inactive)
3,CN1CC[C@@H](c2c(O)cc(O)c3c(=O)cc(-c4ccccc4Cl)oc23)[C@@H]1CO,> 30 µM (inactive)
4,Cc1cc(-c2cc(O)ccc2Cl)cc2nnc(Nc3ccc(OCCN4CCCC4)cc3)nc12,0.003 µM (active)
5,CCN1CCN(Cc2ccc(-c3cc4c(N[C@H](C)c5ccccc5)ncnc4[nH]3)cc2)CC1 [AEE-788],> 30 µM (inactive)
6,Cn1ncc(Cl)c1-c1cc(C(=O)N[C@H](CN)Cc2cccc(F)c2)sc1Cl [AFURESERTIB],4.26 µM (active)
7,COc1cc(N2CCC(N3CCN(C)CC3)CC2)ccc1Nc1ncnc(Nc2ccccc2S(=O)(=O)C(C)C)n1 [ASP-3026],> 30 µM (inactive)
8,CNS(=O)(=O)Nc1nccc(Cc2c(C)c3ccc(Oc4ncccn4)cc3oc2=O)c1F [AVUTOMETINIB],> 30 µM (inactive)
9,COc1cc(CCc2cc(NC(=O)c3ccc(N4C[C@@H](C)N[C@@H](C)C4)cc3)n[nH]2)cc(OC)c1 [AZD-4547],> 30 µM (inactive)
10,Cc1cc([C@@H](C)Nc2ccccc2C(=O)O)c2nc(N3CCOCC3)cc(=O)n2c1 [AZD-6482],> 30 µM (inactive)
11,COc1ccc(-c2ccc3c(N4CCOC[C@@H]4C)nc(N4CCOC[C@@H]4C)nc3n2)cc1CO [AZD-8055],> 30 µM (inactive)
12,C[C@@H](Nc1cc(F)cc(F)c1)c1cc(C(=O)N(C)C)cc2c(=O)cc(N3CCOCC3)oc12 [AZD-8186],> 30 µM (inactive)

# Biological target: T2, ATP-dependent RNA helicase DDX42 (Homo sapiens, UniProt Q86XP3)
# T2 sequence (Q86XP3 whole entry): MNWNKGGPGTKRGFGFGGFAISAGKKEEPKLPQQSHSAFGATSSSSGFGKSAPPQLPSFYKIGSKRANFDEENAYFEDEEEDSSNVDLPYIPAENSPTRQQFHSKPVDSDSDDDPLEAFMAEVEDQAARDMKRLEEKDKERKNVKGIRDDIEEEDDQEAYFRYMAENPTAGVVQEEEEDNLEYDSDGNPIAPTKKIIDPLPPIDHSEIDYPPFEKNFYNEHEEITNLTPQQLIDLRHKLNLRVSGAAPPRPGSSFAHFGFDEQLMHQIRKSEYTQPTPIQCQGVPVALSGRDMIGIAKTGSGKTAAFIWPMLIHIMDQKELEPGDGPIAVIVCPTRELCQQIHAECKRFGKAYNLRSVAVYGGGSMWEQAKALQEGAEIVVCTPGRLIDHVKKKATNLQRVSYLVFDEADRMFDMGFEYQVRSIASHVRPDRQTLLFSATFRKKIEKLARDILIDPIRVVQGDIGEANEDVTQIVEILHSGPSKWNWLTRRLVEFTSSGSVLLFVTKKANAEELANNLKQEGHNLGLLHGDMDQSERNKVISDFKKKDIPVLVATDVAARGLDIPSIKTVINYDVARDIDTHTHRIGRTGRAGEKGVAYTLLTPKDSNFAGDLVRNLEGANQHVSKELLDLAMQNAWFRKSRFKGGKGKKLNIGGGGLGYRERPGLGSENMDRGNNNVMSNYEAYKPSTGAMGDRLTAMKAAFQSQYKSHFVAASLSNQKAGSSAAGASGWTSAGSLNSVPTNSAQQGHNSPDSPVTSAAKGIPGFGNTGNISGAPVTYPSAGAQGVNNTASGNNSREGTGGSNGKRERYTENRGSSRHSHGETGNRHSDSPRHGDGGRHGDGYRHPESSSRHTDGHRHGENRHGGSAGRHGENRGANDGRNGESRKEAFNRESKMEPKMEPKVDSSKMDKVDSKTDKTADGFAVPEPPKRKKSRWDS
row,Compound,Kd
1,N[C@@H]1CCCN(c2c(/C=C3\SC(=O)NC3=O)cccc2-c2ccccc2)C1,> 30 µM (inactive)
2,CN1CC[C@@H](c2c(O)cc(O)c3c(=O)cc(-c4ccccc4Cl)oc23)[C@@H]1CO,0.002 µM
3,Cc1cc(-c2cc(O)ccc2Cl)cc2nnc(Nc3ccc(OCCN4CCCC4)cc3)nc12,> 30 µM (inactive)
4,CCN1CCN(Cc2ccc(-c3cc4c(N[C@H](C)c5ccccc5)ncnc4[nH]3)cc2)CC1 [AEE-788],> 30 µM (inactive)
5,Cn1ncc(Cl)c1-c1cc(C(=O)N[C@H](CN)Cc2cccc(F)c2)sc1Cl [AFURESERTIB],> 30 µM (inactive)
6,COc1cc(N2CCC(N3CCN(C)CC3)CC2)ccc1Nc1ncnc(Nc2ccccc2S(=O)(=O)C(C)C)n1 [ASP-3026],> 30 µM (inactive)
7,CNS(=O)(=O)Nc1nccc(Cc2c(C)c3ccc(Oc4ncccn4)cc3oc2=O)c1F [AVUTOMETINIB],> 30 µM (inactive)
8,Cc1cc([C@@H](C)Nc2ccccc2C(=O)O)c2nc(N3CCOCC3)cc(=O)n2c1 [AZD-6482],> 30 µM (inactive)
9,COc1ccc(-c2ccc3c(N4CCOC[C@@H]4C)nc(N4CCOC[C@@H]4C)nc3n2)cc1CO [AZD-8055],> 30 µM (inactive)

# Biological target: T3, Glycine--tRNA ligase (Homo sapiens, UniProt P41250)
# T3 sequence (P41250 whole entry): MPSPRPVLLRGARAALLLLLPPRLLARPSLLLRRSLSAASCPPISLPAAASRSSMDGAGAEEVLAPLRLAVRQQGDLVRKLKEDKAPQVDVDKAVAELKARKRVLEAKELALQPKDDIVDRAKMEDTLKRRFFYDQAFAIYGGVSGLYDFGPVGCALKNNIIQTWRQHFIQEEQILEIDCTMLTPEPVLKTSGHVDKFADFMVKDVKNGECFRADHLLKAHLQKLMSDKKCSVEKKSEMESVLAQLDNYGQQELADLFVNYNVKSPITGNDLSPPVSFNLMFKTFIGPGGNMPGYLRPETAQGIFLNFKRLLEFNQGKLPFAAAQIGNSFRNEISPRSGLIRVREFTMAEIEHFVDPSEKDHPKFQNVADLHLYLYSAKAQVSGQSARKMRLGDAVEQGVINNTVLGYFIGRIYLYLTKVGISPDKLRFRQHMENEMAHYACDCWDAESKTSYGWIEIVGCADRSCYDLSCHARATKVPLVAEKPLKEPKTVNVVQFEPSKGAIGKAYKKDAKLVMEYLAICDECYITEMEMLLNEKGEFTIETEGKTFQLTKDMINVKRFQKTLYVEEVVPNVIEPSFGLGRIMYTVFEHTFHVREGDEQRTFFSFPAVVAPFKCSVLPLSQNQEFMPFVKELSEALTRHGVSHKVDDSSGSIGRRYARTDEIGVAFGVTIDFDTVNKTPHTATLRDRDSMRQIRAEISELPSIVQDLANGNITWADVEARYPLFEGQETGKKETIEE
row,Compound,Kd
1,N[C@@H]1CCCN(c2c(/C=C3\SC(=O)NC3=O)cccc2-c2ccccc2)C1,> 30 µM (inactive)
2,Cc1ccc(S(=O)(=O)Nc2nc3ccccc3nc2Nc2ccc3nsnc3c2)cc1,> 30 µM (inactive)
3,CN1CC[C@@H](c2c(O)cc(O)c3c(=O)cc(-c4ccccc4Cl)oc23)[C@@H]1CO,> 30 µM (inactive)
4,Cc1cc(-c2cc(O)ccc2Cl)cc2nnc(Nc3ccc(OCCN4CCCC4)cc3)nc12,> 30 µM (inactive)
5,CCN1CCN(Cc2ccc(-c3cc4c(N[C@H](C)c5ccccc5)ncnc4[nH]3)cc2)CC1 [AEE-788],> 30 µM (inactive)
6,Cn1ncc(Cl)c1-c1cc(C(=O)N[C@H](CN)Cc2cccc(F)c2)sc1Cl [AFURESERTIB],> 30 µM (inactive)
7,COc1cc(N2CCC(N3CCN(C)CC3)CC2)ccc1Nc1ncnc(Nc2ccccc2S(=O)(=O)C(C)C)n1 [ASP-3026],> 30 µM (inactive)
8,CNS(=O)(=O)Nc1nccc(Cc2c(C)c3ccc(Oc4ncccn4)cc3oc2=O)c1F [AVUTOMETINIB],> 30 µM (inactive)
9,COc1cc(CCc2cc(NC(=O)c3ccc(N4C[C@@H](C)N[C@@H](C)C4)cc3)n[nH]2)cc(OC)c1 [AZD-4547],> 30 µM (inactive)
10,Cc1cc([C@@H](C)Nc2ccccc2C(=O)O)c2nc(N3CCOCC3)cc(=O)n2c1 [AZD-6482],> 30 µM (inactive)
11,COc1ccc(-c2ccc3c(N4CCOC[C@@H]4C)nc(N4CCOC[C@@H]4C)nc3n2)cc1CO [AZD-8055],> 30 µM (inactive)
12,C[C@@H](Nc1cc(F)cc(F)c1)c1cc(C(=O)N(C)C)cc2c(=O)cc(N3CCOCC3)oc12 [AZD-8186],> 30 µM (inactive)

# Biological target: T4, Cytochrome c1, heme protein, mitochondrial (Homo sapiens, UniProt P08574)
# T4 sequence (P08574 whole entry): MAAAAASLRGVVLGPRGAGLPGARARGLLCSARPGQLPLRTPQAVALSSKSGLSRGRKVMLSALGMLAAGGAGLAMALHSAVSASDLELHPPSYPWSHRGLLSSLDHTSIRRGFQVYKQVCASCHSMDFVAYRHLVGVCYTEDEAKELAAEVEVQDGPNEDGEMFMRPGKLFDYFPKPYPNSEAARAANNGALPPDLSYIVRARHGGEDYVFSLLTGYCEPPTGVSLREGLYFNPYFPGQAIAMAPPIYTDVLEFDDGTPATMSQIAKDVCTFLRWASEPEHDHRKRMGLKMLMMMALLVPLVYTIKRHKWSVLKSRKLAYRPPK
row,Compound,Kd
1,N[C@@H]1CCCN(c2c(/C=C3\SC(=O)NC3=O)cccc2-c2ccccc2)C1,> 30 µM (inactive)
2,Cc1ccc(S(=O)(=O)Nc2nc3ccccc3nc2Nc2ccc3nsnc3c2)cc1,> 30 µM (inactive)
3,CN1CC[C@@H](c2c(O)cc(O)c3c(=O)cc(-c4ccccc4Cl)oc23)[C@@H]1CO,> 30 µM (inactive)
4,Cc1cc(-c2cc(O)ccc2Cl)cc2nnc(Nc3ccc(OCCN4CCCC4)cc3)nc12,> 30 µM (inactive)
5,CCN1CCN(Cc2ccc(-c3cc4c(N[C@H](C)c5ccccc5)ncnc4[nH]3)cc2)CC1 [AEE-788],> 30 µM (inactive)
6,Cn1ncc(Cl)c1-c1cc(C(=O)N[C@H](CN)Cc2cccc(F)c2)sc1Cl [AFURESERTIB],> 30 µM (inactive)
7,COc1cc(N2CCC(N3CCN(C)CC3)CC2)ccc1Nc1ncnc(Nc2ccccc2S(=O)(=O)C(C)C)n1 [ASP-3026],> 30 µM (inactive)
8,CNS(=O)(=O)Nc1nccc(Cc2c(C)c3ccc(Oc4ncccn4)cc3oc2=O)c1F [AVUTOMETINIB],> 30 µM (inactive)
9,COc1cc(CCc2cc(NC(=O)c3ccc(N4C[C@@H](C)N[C@@H](C)C4)cc3)n[nH]2)cc(OC)c1 [AZD-4547],> 30 µM (inactive)
10,Cc1cc([C@@H](C)Nc2ccccc2C(=O)O)c2nc(N3CCOCC3)cc(=O)n2c1 [AZD-6482],> 30 µM (inactive)
11,COc1ccc(-c2ccc3c(N4CCOC[C@@H]4C)nc(N4CCOC[C@@H]4C)nc3n2)cc1CO [AZD-8055],> 30 µM (inactive)
12,C[C@@H](Nc1cc(F)cc(F)c1)c1cc(C(=O)N(C)C)cc2c(=O)cc(N3CCOCC3)oc12 [AZD-8186],> 30 µM (inactive)
